Biological target: T1, Human CaV2.2 channels (Homo sapiens, UniProt Q00975)
T1 construct: expressed in transfected cells; also stably expressing Kir2.3)
Assay: Fluorescence assay for CaV2.2 channels using potassium depolarization to induce channel opening (FLIPR, Fluo 4)
Assay type: cell-based
Settings: 30 mM KCl assay buffer (inactivated channel state), HEK293 cells; for inhibition at 3 µM: HEK293, 3 μM test compound, read-out: Activity Category: %-Inhib (CaV2.2) @3 μM @30 mM KCl; for Activity Category: %-Inhib (CaV2.2) @3 μM @30 mM KCl: 3 μM test compound
From the text: In the process, the Ca^2+ influx is quantified in the FLIPR assay with the aid of a Ca^2+-sensitive dye (type Fluo-4, Molecular Probes Europe BV, Leiden, the Netherlands) in a fluorescent imaging plate reader (FLIPR 3, Molecular Devices, Sunnyvale, USA), as described hereinafter.
[drawing 69] 2. Assay Descriptions and Biological Data: 2.1 Fluorescence Assay for CaV2.2 Channels Using Potassium Depolarization to Induce Channel Opening
Human CaV2.2 channels were stably expressed in HEK293 cells together with alpha2-delta and beta subunits of voltage gated calcium channels. In addition, an inwardly rectifying potassium channel (Kir2.3) was stably expressed in these cells to augment control of the cell membrane potential by the concentration of extracellular potassium ions. Raise of the extracellular potassium concentration leads to depolarization of the membrane potential and thus regulates the voltage dependent state of CaV2.2 channels. For preparation, cells were seeded in black poly-D-lysine coated 96-well plates (Becton Dickinson, Biocoat 4640) in 100 μL medium [500 mL DMEM/F-12 plus Glutamax (Invitrogen 31331-093) plus 5.5 mL MEM NEAA 100× (Invitrogen 11140-035) plus 50 mL FBS decomplemented (Invitrogen 10270-106) plus 200 μg/mL Geneticin (Invitrogen 10131-027) plus 50 μg/mL Hygromycin B (Invitrogen 10687-010) plus 2 μg/mL Blasticidin (anti-b15b Invivo-Gen) plus 0.2 μg/mL Puromycin (A 11138-03)] at a cell density of 30.000 cells per well. Plates were incubated at 37° C. (5% CO2) for 20 to 23 h. On the day of experiment medium was discarded and cells were loaded with Fluo 4 by addition of 100 μL of basic assay buffer (10 mM HEPES, 1 mM KCl, 149 mM NaCl, 0.8 mM CaCl2, 1.7 mM MgCl2, 10 mM Glucose, 0.1% BSA. pH 7.4) containing 2 μM Fluo 4 (Molecular Probes; F-14201), 0.01% pluronic acid (Molecular Probes; P-6866) and 2.5 mM probenecid (Molecular Probes; P36400). Cells were incubated in the dark at 25° C. for 60 min. Then dye containing buffer was discarded and 100 μL basic (1 mM KCl) or alternative (30 mM KCl) assay buffer was added. The alternative assay buffer contained altered concentrations of KCl (30 mM) and NaCl (120 mM) and was used in order to promote the inactivated channel state. After that 25 μL of basic or alternative assay buffer with or without test compound were added and cells were incubated again in the dark at 25° C. for 15 min. Fluorescence intensity was measured on a FLIPR 3 instrument (Molecular Devices Corp., Sunnyvale, Calif.) with excitation at 480 nm and emission at 535 nm. After continuously reading fluorescence for 30 sec, 50 μL of basic assay buffer containing 210 mM KCl(NaCl omitted) were added for depolarization. Peak fluorescent signal intensity was determined and the amplitude of the peak signal, normalized to base line, was used to measure channel inhibition by test compounds.

T1 sequence (Q00975 whole entry): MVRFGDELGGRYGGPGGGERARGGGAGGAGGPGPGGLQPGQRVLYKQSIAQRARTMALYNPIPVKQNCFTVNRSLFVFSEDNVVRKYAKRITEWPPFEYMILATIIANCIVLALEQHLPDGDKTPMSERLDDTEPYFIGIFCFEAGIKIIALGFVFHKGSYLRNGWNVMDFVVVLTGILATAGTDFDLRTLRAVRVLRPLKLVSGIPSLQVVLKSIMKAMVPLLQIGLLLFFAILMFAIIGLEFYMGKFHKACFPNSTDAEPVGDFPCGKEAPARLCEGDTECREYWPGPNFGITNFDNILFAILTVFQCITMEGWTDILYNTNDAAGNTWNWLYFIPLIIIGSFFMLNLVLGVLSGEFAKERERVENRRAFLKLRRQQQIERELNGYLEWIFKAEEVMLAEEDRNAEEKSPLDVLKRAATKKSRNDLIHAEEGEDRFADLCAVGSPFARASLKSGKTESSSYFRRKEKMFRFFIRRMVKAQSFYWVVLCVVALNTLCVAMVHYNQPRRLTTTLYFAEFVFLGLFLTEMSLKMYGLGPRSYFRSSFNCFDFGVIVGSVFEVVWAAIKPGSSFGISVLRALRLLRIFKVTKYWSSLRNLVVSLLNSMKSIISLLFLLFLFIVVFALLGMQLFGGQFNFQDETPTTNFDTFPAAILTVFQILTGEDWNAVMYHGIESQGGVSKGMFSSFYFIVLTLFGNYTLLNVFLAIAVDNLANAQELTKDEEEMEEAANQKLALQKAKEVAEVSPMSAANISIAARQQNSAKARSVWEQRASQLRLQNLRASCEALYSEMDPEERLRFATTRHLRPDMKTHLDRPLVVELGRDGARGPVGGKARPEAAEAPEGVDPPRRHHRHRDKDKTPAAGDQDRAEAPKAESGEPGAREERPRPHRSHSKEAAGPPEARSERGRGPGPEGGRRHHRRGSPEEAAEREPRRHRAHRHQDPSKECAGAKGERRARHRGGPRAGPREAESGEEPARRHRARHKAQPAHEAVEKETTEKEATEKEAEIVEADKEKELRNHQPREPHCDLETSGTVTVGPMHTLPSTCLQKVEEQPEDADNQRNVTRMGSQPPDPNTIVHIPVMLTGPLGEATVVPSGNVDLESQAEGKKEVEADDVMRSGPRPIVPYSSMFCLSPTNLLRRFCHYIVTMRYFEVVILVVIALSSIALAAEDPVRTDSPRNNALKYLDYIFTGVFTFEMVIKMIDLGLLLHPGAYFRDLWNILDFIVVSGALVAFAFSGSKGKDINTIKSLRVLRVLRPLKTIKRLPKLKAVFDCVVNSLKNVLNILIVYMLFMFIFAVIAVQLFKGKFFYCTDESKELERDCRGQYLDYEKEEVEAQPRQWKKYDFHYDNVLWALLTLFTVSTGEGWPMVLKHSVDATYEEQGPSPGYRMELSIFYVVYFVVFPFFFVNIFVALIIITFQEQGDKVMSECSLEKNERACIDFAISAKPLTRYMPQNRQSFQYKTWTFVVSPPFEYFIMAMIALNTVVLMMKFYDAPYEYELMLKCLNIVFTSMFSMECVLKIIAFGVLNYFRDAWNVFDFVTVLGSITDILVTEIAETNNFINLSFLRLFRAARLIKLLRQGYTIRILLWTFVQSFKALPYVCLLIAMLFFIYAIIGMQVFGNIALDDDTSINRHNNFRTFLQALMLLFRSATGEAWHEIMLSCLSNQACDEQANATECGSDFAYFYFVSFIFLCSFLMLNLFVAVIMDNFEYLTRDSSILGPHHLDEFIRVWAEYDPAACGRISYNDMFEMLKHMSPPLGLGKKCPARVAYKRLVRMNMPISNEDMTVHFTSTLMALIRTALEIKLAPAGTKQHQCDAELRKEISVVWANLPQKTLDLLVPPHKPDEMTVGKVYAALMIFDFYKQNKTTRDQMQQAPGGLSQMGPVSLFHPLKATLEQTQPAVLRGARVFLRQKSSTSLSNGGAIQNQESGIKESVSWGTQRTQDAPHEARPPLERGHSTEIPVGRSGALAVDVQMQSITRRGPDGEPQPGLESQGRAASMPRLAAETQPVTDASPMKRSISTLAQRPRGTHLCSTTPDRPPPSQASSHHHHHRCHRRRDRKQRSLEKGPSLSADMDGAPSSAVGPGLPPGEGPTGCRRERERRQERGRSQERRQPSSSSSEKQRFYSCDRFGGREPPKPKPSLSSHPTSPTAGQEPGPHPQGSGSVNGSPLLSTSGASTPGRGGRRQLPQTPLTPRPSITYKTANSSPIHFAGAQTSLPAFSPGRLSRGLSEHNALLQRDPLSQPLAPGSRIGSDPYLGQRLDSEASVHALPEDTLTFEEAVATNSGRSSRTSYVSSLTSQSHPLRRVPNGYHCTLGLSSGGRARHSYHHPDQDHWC

| SMILES | inhibition at 3 µM | other results |
| --- | --- | --- |
| CC1(S(=O)(=O)c2cccc(C(F)(F)F)c2)CCOC(c2cc(C(F)F)[nH]n2)C1 (racemic) [[trans-rac] Example 12, 5-(Difluoro-methyl)-3-[4-methyl-4-[[3-(trifluoromethyl)phenyl]sulfonyl]-tetrahydro-pyran-2-yl]-1H-pyrazole] | 75 to 95% | – |
| CC1(S(=O)(=O)c2cccc(C(F)(F)F)c2)CCOC(c2cc(CS(=O)(=O)C(F)F)n[nH]2)C1 (stereo not drawn) [Example 28 cis-EN1, 3-[(Difluoro-methylsulfonyl)-methyl]-5-[4-methyl-4-[[3-(trifluoromethyl)phenyl]sulfonyl]-tetrahydro-pyran-2-yl]-1H-pyrazole] | 75 to 95% | – |
| CC(C)(C)CS(=O)(=O)c1cc(C2CC(C)(S(=O)(=O)c3cccc(C(F)(F)F)c3)CCO2)[nH]n1 (stereo not drawn) [Example 36 cis-EN1, 3-(2,2-Dimethyl-propylsulfonyl)-5-[4-methyl-4-[[3-(trifluoromethyl)phenyl]sulfonyl]-tetrahydro-pyran-2-yl]-1H-pyrazole] | 75 to 95% | – |
| CC(C)(C)CS(=O)(=O)c1cc(C2CC(C)(S(=O)(=O)c3cccc(C(F)(F)F)c3)CCO2)[nH]n1 (stereo not drawn) [Example 36 cis-EN2, 3-(2,2-Dimethyl-propylsulfonyl)-5-[4-methyl-4-[[3-(trifluoromethyl)phenyl]sulfonyl]-tetrahydro-pyran-2-yl]-1H-pyrazole] | – | Activity Category: %-Inhib (CaV2.2) @3 μM @30 mM KCl: A (%-Inhibition >95%) |
| CC1(S(=O)(=O)c2cccc(C(F)(F)F)c2)CCOC(c2cc(S(=O)(=O)C3COC3)n[nH]2)C1 (stereo not drawn) [Example 4 cis-EN2, 5-[4-Methyl-4-[[3-(trifluoromethyl)phenyl]sulfonyl]-tetrahydro-pyran-2-yl]-3-(oxetan-3-ylsulfonyl)-1H-pyrazole] | – | Activity Category: %-Inhib (CaV2.2) @3 μM @30 mM KCl (listed as 4 cis-EN2): B (%-Inhibition >75% up to ≤95%) |
| CC1(S(=O)(=O)c2cccc(C(F)(F)F)c2)CCOC(c2cc(CCS(C)(=O)=O)n[nH]2)C1 (stereo not drawn) [Example 9 cis-EN1, 3-(2-Methylsulfonyl-ethyl)-5-[4-methyl-4-[[3-(trifluoromethyl)phenyl]sulfonyl]-tetrahydro-pyran-2-yl]-1H-pyrazole] | 40 to 75% | – |
| CC(C)CS(=O)(=O)c1cc(C2CC(C)(S(=O)(=O)c3cccc(C(F)(F)F)c3)CCO2)[nH]n1 (stereo not drawn) [Example 35 cis-EN1, 3-(2-Methyl-propylsulfonyl)-5-[4-methyl-4-[[3-(trifluoromethyl)phenyl]sulfonyl]-tetrahydro-pyran-2-yl]-1H-pyrazole] | 75 to 95% | – |
| COCCS(=O)(=O)c1cc(C2CC(C)(S(=O)(=O)c3cccc(C(F)(F)F)c3)CCO2)[nH]n1 (stereo not drawn) [Example 5 cis-EN2, 3-(2-Methoxy-ethylsulfonyl)-5-[4-methyl-4-[[3-(trifluoromethyl)phenyl]sulfonyl]-tetrahydro-pyran-2-yl]-1H-pyrazole] | – | Activity Category: %-Inhib (CaV2.2) @3 μM @30 mM KCl (listed as 5 cis-EN2): C (%-Inhibition >40% up to ≤75%) |
| CC1(S(=O)(=O)c2cccc(C(F)(F)F)c2)CCOC(c2cc(C(F)F)[nH]n2)C1 (stereo not drawn) [[cis-EN1] Example 12, 5-(Difluoro-methyl)-3-[4-methyl-4-[[3-(trifluoromethyl)phenyl]sulfonyl]-tetrahydro-pyran-2-yl]-1H-pyrazole] | 75 to 95% | – |
| CC1(S(=O)(=O)c2cccc(C(F)(F)F)c2)CCOC(c2cc(S(=O)(=O)C3COC3)n[nH]2)C1 (stereo not drawn) [Example 4 cis-EN1, 5-[4-Methyl-4-[[3-(trifluoromethyl)phenyl]sulfonyl]-tetrahydro-pyran-2-yl]-3-(oxetan-3-ylsulfonyl)-1H-pyrazole] | – | Activity Category: %-Inhib (CaV2.2) @3 μM @30 mM KCl (listed as 4 cis-EN1): C (%-Inhibition >40% up to ≤75%) |
| CC1(S(=O)(=O)c2cccc(C(F)(F)F)c2)CCOC(c2cc(S(C)(=O)=O)n[nH]2)C1 (stereo not drawn) [Example 37 cis-EN1, 5-Methylsulfonyl-3-[4-methyl-4-[[3-(trifluoromethyl)phenyl]sulfonyl]-tetrahydro-pyran-2-yl]-1H-pyrazole] | – | Activity Category: %-Inhib (CaV2.2) @3 μM @30 mM KCl (listed as 37 cis-EN1): C (%-Inhibition >40% up to ≤75%) |
| CC1(S(=O)(=O)c2cccc(C(F)(F)F)c2)CCOC(c2cc(OCC(F)F)n[nH]2)C1 (stereo not drawn) [Example 32 cis-EN2, 5-(2,2-Difluoro-ethoxy)-3-[4-methyl-4-[[3-(trifluoromethyl)phenyl]sulfonyl]-tetrahydro-pyran-2-yl]-1H-pyrazole] | – | Activity Category: %-Inhib (CaV2.2) @3 μM @30 mM KCl: B (%-Inhibition >75% up to ≤95%) |
| CC1(S(=O)(=O)c2cccc(C(F)(F)F)c2)CCOC(c2cc(S(=O)(=O)C(F)(F)F)n[nH]2)C1 (stereo not drawn) [Example 27 cis-EN1, 3-(Trifluoro-methylsulfonyl)-5-[4-methyl-4-[[3-(trifluoromethyl)phenyl]sulfonyl]-tetrahydro-pyran-2-yl]-1H-pyrazole] | > 95% | – |
| CC(F)(F)c1cc(C2CC(C)(S(=O)(=O)c3cccc(C(F)(F)F)c3)CCO2)[nH]n1 (stereo not drawn) [Example 13 cis-EN1, 3-(1,1-Difluoro-ethyl)-5-[4-methyl-4-[[3-(trifluoromethyl)phenyl]sulfonyl]-tetrahydro-pyran-2-yl]-1H-pyrazole] | > 95% | – |
| CC(C)(O)c1cc(C2CC(C)(S(=O)(=O)c3cccc(C(F)(F)F)c3)CCO2)[nH]n1 (stereo not drawn) [Example 19 cis-EN2, 2-[5-[4-Methyl-4-[[3-(trifluoromethyl)phenyl]sulfonyl]-tetrahydro-pyran-2-yl]-1H-pyrazol-3-yl]-propan-2-ol] | – | Activity Category: %-Inhib (CaV2.2) @3 μM @30 mM KCl (listed as 19 cis-EN2): C (%-Inhibition >40% up to ≤75%) |
| CC(C)(O)c1cc(C2CC(C)(S(=O)(=O)c3cccc(C(F)(F)F)c3)CCO2)[nH]n1 (stereo not drawn) [Example 19 cis-EN1, 2-[5-[4-Methyl-4-[[3-(trifluoromethyl)phenyl]sulfonyl]-tetrahydro-pyran-2-yl]-1H-pyrazol-3-yl]-propan-2-ol] | – | Activity Category: %-Inhib (CaV2.2) @3 μM @30 mM KCl (listed as 19 cis-EN1): B (%-Inhibition >75% up to ≤95%) |
| CC1(S(=O)(=O)c2cccc(C(F)(F)F)c2)CCOC(c2cc(CC(F)F)n[nH]2)C1 (stereo not drawn) [Example 14 cis-EN1, 3-(2,2-Difluoro-ethyl)-5-[4-methyl-4-[[3-(trifluoromethyl)phenyl]sulfonyl]-tetrahydro-pyran-2-yl]-1H-pyrazole] | 75 to 95% | – |
| CC(C)CS(=O)(=O)c1cc(C2CC(C)(S(=O)(=O)c3cccc(C(F)(F)F)c3)CCO2)[nH]n1 (stereo not drawn) [Example 35 cis-EN2, 3-(2-Methyl-propylsulfonyl)-5-[4-methyl-4-[[3-(trifluoromethyl)phenyl]sulfonyl]-tetrahydro-pyran-2-yl]-1H-pyrazole] | – | Activity Category: %-Inhib (CaV2.2) @3 μM @30 mM KCl: A (%-Inhibition >95%) |
| CC1(S(=O)(=O)c2cccc(C(F)(F)F)c2)CCOC(c2cc(OCC(F)(F)F)n[nH]2)C1 (stereo not drawn) [Example 16 cis-EN2, 5-[4-Methyl-4-[[3-(trifluoromethyl)phenyl]sulfonyl]-tetrahydro-pyran-2-yl]-3-(2,2,2-trifluoro-ethoxy)-1H-pyrazole] | > 95% | – |
| CC1(S(=O)(=O)c2cccc(C(F)(F)F)c2)CCOC(c2cc(S(=O)(=O)CC(F)F)n[nH]2)C1 (stereo not drawn) [Example 3 cis-EN1, 3-(2,2-Difluoro-ethylsulfonyl)-5-[4-methyl-4-[[3-(trifluoromethyl)phenyl]sulfonyl]-tetrahydro-pyran-2-yl]-1H-pyrazole] | 30 to 40% | – |
| CC(C)(C(N)=O)c1cc(C2CC(C)(S(=O)(=O)c3cccc(C(F)(F)F)c3)CCO2)[nH]n1 (stereo not drawn) [Example 30 cis-EN2, 2-Methyl-2-[5-[4-methyl-4-[[3-(trifluoromethyl)phenyl]sulfonyl]-tetrahydro-pyran-2-yl]-1H-pyrazol-3-yl]-propionamide] | 40 to 75% | – |
